We go through 7 molecules from US20240408093A1, “HETEROBIFUNCTIONAL COMPOUNDS AND THEIR USE IN TREATING DISEASE” (HALDA THERAPEUTICS OPCO, INC., priority 2022, published 2024).

For orientation: Kd means the free concentration of one partner at which half of the binding sites on the other are occupied at equilibrium, for simple one-to-one binding. Higher therefore signals lower affinity. For orientation: GI50 means the concentration that inhibits growth by half. A high value points to lower sensitivity of the cells. The DC50 is the concentration at which degradation of the target reaches its halfway point. Higher therefore signals degradation only at high concentration.

Assay [1] deals with T1, BTK (amino acids 387-659) (Homo sapiens, UniProt Q06187).
T1 construct: BTK (amino acids 387-659)
T1 sequence (Q06187 387-659): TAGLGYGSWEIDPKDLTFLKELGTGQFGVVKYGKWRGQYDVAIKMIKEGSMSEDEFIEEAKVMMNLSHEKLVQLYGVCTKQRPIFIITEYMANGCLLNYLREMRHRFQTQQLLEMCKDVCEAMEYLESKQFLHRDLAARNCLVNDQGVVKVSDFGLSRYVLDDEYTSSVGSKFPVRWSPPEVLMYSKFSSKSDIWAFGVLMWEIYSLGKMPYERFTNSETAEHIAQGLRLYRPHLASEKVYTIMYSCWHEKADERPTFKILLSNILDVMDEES
The experiment in a line: Intact mass spec target engagement, BTK. The following applies: 24 hours post-reaction; 2 μM BTK, 20 μM compound. The format is binding. The method, then:
(§1) Exemplary heterobifunctional compounds were evaluated for intact mass spectrometry target engagement against KRAS G12C, BTK, or EGFR T790M L858R (amino acids 669-1011; Accession Number NP_005219.2), separately.
(§2) BTK: Samples were prepared using 2 μM of BTK (amino acids 387-659) and 20 μM of heterobifunctional compound in a buffer containing 20 mM HEPES pH 7.5, 150 mM NaCl, 1 mM TCEP. Protein was incubated with heterobifunctional compound at RT or 37° C. for the given amounts of time then flash-frozen and stored at −80° C. until analysis. Samples were transferred to HPLC vials and injected into Dionex UltiMate 3000 FLM HPLC system with a proprietary column (2.1×50 mm, 5 μm, 1000 Å) at 0.3 mL/minute in a column compartment at 50° C. and run on a Q Exactive Hybrid Quadrupole-Orbitrap Mass Spectrometer. Ion Max source with HESI-II probe were used, with a source voltage of 3.5 kV.
(§3) Results showing ability of exemplary heterobifunctional compounds to generate a modified target protein via intact mass spectrometry are shown in Table 13 below. The amount of different components identified by mass spectrometry at 24 hours post-reaction are listed in Table 14, wherein the different components include: • Un-modified Protein—this is starting protein material (e.g., KRAS G12C, BTK, or EGFR T790M L858R) that remained unchanged in the experiment. • Elimination-Conjugate Product—this is a conjugate formed by reaction of protein with the heterobifunctional compound to form a protein conjugate of the following general formula: […]
(§4) Exemplary Other Material can include, for example, residual impurities in the protein starting material used to conduct the experiment.

Assay [2] addresses T2, BTK (Homo sapiens, UniProt Q06187).
T2 construct: BTK (amino acids 387-659)
Nature of the assay: Release of effector protein ligand from heterobifunctional compounds, BTK. It counts as biochemical. The settings on record: detected A1-3. The method, then:
(§5) Exemplary heterobifunctional compounds were evaluated for the ability to release an effector protein ligand in the presence of KRAS G12C, BTK, or EGFR T790M L858R target proteins.
(§6) Samples for mass spectrometry for KRAS G12C, BTK, and EGFR T790M L858R were prepared as described above for the intact mass spectrometry target engagement experiment, respectively, except rather than flash-freezing, 20 μL of sample was quenched with 50 μL of 100% acetonitrile. As well, a buffer-only control was used to detect latent release of effector protein ligand analyte. Internal standard (IS) solution consisted of 200 ng/mL propranolol and 50 ng/mL diclofenac in methanol:water 1:1 (v/v). A 4-point calibration curve (calibration standard (CS)) consisting of each analyte was made at final concentrations of 3 nM, 30 nM, 300 nM, and 3000 nM. Unknown samples were diluted such that the unknown analyte concentration was in the linear range of the calibration curve.
(§7) Samples for all proteins were prepared and analyzed from the following:
(§8) Samples were further analyzed with AB Sciex Triple Quad 5500 system coupled with Shimadzu Prominence HPLC.

For assay [3], the target named is T3, KRAS G12C (Homo sapiens, UniProt P01116, C118S/C51S/C80L/G12C).
T3 construct: KRAS G12C C51S C80L C118S (amino acids 1-169)
Nature of the assay: Release of effector protein ligand from heterobifunctional compounds, KRAS G12C. The settings on record: detected A1-3. The format is biochemical. The method, then: as §5, §6, §7, §8

The target in assay [4] is T4, KRAS G12C C51S C80L C118S (amino acids 1-169) (Homo sapiens, UniProt P01116, C118S/C51S/C80L/G12C).
T4 construct: KRAS G12C C51S C80L C118S (amino acids 1-169)
The experiment in a line: Intact mass spec target engagement, KRAS G12C. The format is binding. The settings on record: 24 hours post-reaction; 5 μM KRAS G12C, 50 μM compound. The method, then: as §1
as §2, with “KRAS G12C: Samples” for “BTK: Samples”, “using 5” for “using 2”, “of KRAS G12C C51S C80L C118S” for “of BTK”, “acids 1-169)” for “acids 387-659)”, “and 50” for “and 20”, “NaCl, and” for “NaCl,”
as §3, §4

The target in assay [5] is T5, full-length BTK (amino acids 1-659) (Homo sapiens, UniProt Q06187).
T5 construct: full-length BTK (amino acids 1-659); host or cells: mammalian cells (HEK-293)
T5 sequence (Q06187 whole entry, the tested form may be a part): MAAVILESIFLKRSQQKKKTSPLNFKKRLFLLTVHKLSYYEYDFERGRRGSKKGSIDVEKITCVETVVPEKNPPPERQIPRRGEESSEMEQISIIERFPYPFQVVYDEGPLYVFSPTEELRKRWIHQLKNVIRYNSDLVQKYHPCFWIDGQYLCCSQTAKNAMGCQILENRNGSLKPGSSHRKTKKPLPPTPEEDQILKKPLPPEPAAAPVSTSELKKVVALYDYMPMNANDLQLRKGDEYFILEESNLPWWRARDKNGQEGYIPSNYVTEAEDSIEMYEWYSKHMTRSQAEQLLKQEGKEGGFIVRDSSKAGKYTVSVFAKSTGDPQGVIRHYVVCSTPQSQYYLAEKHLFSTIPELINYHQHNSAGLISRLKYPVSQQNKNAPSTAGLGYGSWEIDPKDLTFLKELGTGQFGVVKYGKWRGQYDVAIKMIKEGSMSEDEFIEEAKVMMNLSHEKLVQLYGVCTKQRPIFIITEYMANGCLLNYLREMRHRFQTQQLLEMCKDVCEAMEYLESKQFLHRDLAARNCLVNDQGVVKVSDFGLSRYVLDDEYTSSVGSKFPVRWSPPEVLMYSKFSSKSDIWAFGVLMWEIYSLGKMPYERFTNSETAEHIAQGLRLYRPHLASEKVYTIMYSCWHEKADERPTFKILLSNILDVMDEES
The experiment in a line: KdELECT binding assay, BTK. The method, then: Exemplary compounds were tested for ability to bind to full-length BTK (amino acids 1-659; Accession Number NP_000052.1) expressed from mammalian cells. Compounds were tested using the KdELECT assay.
Kinase-tagged T7 phage strains were prepared in an E. coli host derived from the BL21 strain. E. coli were grown to log-phase and infected with T7 phage and incubated with shaking at 32° C. until lysis. The lysates were centrifuged and filtered to remove cell debris. The remaining kinases were produced in HEK-293 cells and subsequently tagged with DNA for qPCR detection. Streptavidin-coated magnetic beads were treated with biotinylated small molecule ligands for 30 minutes at room temperature to generate affinity resins for kinase assays. The liganded beads were blocked with excess biotin and washed with blocking buffer (SeaBlock (Pierce), 1% BSA, 0.05% Tween 20, 1 mM DTT) to remove unbound ligand and to reduce non-specific binding. Binding reactions were assembled by combining kinases, liganded affinity beads, and test compounds in 1× binding buffer (20% SeaBlock, 0.17× PBS, 0.05% Tween 20, 6 mM DTT). Test compounds were prepared as 111× stocks in 100% DMSO. Kd values were determined using an 11-point 3-fold compound dilution series with three DMSO control points. All compounds for Kd measurements are distributed by acoustic transfer (non-contact dispensing) in 100% DMSO. The compounds were then diluted directly into the assays such that the final concentration of DMSO was 0.9%. All reactions performed in polypropylene 384-well plate. Each was a final volume of 0.02 mL. The assay plates were incubated at room temperature with shaking for 1 hour and the affinity beads were washed with wash buffer (1× PBS, 0.05% Tween 20). The beads were then re-suspended in elution buffer (1× PBS, 0.05% Tween 20, 0.5 μM nonbiotinylated affinity ligand) and incubated at room temperature with shaking for 30 minutes. The kinase concentration in the eluates was measured by qPCR.

Assay [6] relates to HeLa cells (ATCC CCL-2). The experiment in a line: Cellular growth inhibition assay, HeLa cells (Example 16). The format is cell-based. The settings on record: Homo sapiens, 72 hours, CellTiter-Glo 2.0.
Assay [7] deals with HEK293 cells (ATCC CRL-1573). The experiment in a line: Cellular growth inhibition assay, HEK293 cells (Example 16). It counts as cell-based. The settings on record: Homo sapiens, 72 hours, CellTiter-Glo 2.0. In general terms: Cellular ATP, detected with luciferase, serves as a proxy for viable cell number.
For assay [8], the target named is T6, GSPT1 (Homo sapiens, UniProt P15170+Q96SW2).
T6 construct: host or cells: HEK293 LgBiT / GSPT1 HiBiT CRISPR knock-in
T6 sequence (P15170 whole entry): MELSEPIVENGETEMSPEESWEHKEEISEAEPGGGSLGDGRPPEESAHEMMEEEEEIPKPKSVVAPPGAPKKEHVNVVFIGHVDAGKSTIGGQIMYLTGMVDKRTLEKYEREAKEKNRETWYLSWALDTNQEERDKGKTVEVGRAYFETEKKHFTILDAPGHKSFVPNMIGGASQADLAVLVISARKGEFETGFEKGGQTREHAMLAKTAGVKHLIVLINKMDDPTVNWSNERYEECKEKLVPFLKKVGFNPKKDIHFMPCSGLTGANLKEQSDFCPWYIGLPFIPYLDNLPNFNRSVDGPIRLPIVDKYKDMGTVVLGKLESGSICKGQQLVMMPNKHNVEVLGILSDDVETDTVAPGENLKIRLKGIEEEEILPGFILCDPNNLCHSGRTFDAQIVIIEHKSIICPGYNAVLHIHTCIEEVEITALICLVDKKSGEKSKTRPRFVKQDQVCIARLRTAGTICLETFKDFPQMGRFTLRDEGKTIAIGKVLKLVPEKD
T6 sequence (Q96SW2 whole entry): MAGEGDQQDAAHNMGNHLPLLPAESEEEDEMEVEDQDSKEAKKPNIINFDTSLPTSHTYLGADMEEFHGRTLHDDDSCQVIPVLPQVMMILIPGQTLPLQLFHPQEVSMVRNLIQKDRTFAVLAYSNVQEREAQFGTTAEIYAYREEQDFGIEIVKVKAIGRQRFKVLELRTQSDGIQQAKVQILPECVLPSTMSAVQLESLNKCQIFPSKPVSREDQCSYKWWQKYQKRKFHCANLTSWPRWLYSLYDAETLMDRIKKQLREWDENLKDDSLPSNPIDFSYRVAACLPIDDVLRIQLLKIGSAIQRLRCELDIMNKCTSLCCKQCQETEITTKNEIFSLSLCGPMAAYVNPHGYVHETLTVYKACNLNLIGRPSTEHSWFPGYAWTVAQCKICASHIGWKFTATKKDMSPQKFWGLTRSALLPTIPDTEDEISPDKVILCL
T6 sequence (Q16531 whole entry partner): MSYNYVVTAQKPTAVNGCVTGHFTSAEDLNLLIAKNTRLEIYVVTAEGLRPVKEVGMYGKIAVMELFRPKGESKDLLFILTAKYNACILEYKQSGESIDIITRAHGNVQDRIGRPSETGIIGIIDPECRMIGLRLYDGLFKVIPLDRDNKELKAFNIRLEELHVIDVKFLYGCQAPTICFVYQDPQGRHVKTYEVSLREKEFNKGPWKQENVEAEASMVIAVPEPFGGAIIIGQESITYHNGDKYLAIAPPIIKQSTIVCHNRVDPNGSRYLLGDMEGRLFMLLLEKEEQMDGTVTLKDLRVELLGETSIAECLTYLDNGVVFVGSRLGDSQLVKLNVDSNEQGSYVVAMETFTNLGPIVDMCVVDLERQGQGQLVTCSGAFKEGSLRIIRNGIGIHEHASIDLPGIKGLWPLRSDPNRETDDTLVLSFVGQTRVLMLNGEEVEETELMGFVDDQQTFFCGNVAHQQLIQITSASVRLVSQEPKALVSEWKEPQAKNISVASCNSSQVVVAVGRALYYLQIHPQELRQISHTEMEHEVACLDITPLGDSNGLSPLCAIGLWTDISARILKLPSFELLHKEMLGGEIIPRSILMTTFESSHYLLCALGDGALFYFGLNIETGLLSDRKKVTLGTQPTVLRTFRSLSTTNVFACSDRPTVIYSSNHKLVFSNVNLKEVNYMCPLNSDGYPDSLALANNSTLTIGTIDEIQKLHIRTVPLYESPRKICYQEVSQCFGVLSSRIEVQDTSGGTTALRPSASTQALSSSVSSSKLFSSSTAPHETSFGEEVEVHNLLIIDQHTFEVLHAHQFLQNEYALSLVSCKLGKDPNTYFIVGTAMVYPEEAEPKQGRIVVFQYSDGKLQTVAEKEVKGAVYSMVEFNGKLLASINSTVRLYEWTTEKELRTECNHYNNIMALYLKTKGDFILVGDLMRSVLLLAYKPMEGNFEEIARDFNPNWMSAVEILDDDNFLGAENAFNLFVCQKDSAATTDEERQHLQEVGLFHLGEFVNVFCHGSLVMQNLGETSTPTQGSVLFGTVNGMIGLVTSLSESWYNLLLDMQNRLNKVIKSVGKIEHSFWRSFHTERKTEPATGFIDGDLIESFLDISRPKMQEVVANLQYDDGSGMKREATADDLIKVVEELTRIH
The experiment in a line: GSPT1 HiBiT degradation assay. It counts as cell-based. The settings on record: HEK293 LgBiT GSPT1 HiBiT cells, 6 hours. In outline: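 HEK293 CRISPR knock-in cells expressing LgBiT and GSPT1-HiBiT were seeded at 1000 cells/well and, after 18-24 h, treated with titrated compound plus endurazine (0.5× final) at 37 °C. Luminescence read after 6 h; loss of signal reflects GSPT1 degradation, giving DC50.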

T2 sequence (Q06187 387-659): as the sequence (Q06187 387-659) above

With `C=C(Cn1cc(CNc2cc(N3CCCC[C@H]3CCO)nc3c(CC)cnn23)ccc1=O)C(=O)N1CCC[C@@H](n2nc(-c3ccc(Oc4ccccc4)cc3)c3c(N)ncnc32)C1` [Compound A1-4], the “Percent Other Material” value in assay [1] worked out at 0%. For the same molecule, in assay [1], the “Percent of Addition-Conjugate Product” value stood at 24%. Also, the “Percent of Elimination-Conjugate Product” value in assay [1] amounted to 72%. In addition, the “Percent of Un-modified Protein” value in assay [1] stood at 4%. Also, the “Concentration of Effector Protein Ligand” value in assay [2] (Matrix Buffer + Protein (BTK), Time 0 h) was 17.8 nM; in assay [2] (Matrix Buffer + Protein (BTK), Time 1 h) it was 281 nM; in assay [2] (Matrix Buffer + Protein (BTK), Time 4 h) it was 506 nM; in assay [2] (Matrix Buffer + Protein (BTK), Time 22 h) it was 460 nM; in assay [2] (Matrix Buffer, Time 0 h) it was 4.16 nM; in assay [2] (Matrix Buffer, Time 1 h), 4 nM. The “Concentration of Effector Protein Ligand” value in assay [2] (Matrix Buffer, Time 4 h) was determined as 4.49 nM; in assay [2] (Matrix Buffer, Time 22 h), 10.4 nM.
For the molecule `C=C(Cn1cc(CNc2cc(N3CCCC[C@H]3CCO)nc3c(CC)cnn23)ccc1=O)C(=O)N1CCN(c2nc(OC[C@@H]3CCCN3C)nc3c2CCN(c2cccc4cccc(Cl)c24)C3)C[C@@H]1CC#N` [Compound A1-2], the “Concentration of Effector Protein Ligand” value worked out at 328 nM in assay [3] (Matrix Buffer + Protein (KRAS G12C), Time 0 h); 556 nM in assay [3] (Matrix Buffer + Protein (KRAS G12C), Time 2 h); 1170 nM in assay [3] (Matrix Buffer + Protein (KRAS G12C), Time 8 h); 2020 nM in assay [3] (Matrix Buffer + Protein (KRAS G12C), Time 24 h); 55.8 nM in assay [3] (Matrix Buffer, Time 0 h); 85.3 nM in assay [3] (Matrix Buffer, Time 2 h). The “Concentration of Effector Protein Ligand” value stood at 166 nM in assay [3] (Matrix Buffer, Time 8 h) and 406 nM in assay [3] (Matrix Buffer, Time 24 h). Moreover, the “Percent Other Material” value in assay [4] was 10%. Further, the “Percent of Addition-Conjugate Product” value in assay [4] is given as 5%. The “Percent of Elimination-Conjugate Product” value in assay [4] came to 83%. The “Percent of Un-modified Protein” value in assay [4] is 2%.
Consider `C=C(COc1ccc(Cl)cc1NC(=O)NCc1ccc2c(c1)CN(C1CCC(=O)NC1=O)C2=O)C(=O)N1CCC[C@@H](n2nc(-c3ccc(Oc4ccccc4)cc3)c3c(N)ncnc32)C1` (some centres unmarked) [I-32], for which the Kd in assay [5] lay within 50 to 500 nM. Besides, the 50% growth inhibitory concentration (GI50) in assay [6] and in assay [7] was 500 to 1500 nM throughout.
As to `C=C(CN(C(=O)NCc1ccc2c(c1)CN(C1CCC(=O)NC1=O)C2=O)c1ccc(C(F)(F)F)c(Cl)c1)C(=O)N1CCC[C@@H](n2nc(-c3ccc(Oc4ccccc4)cc3)c3c(N)ncnc32)C1` (some centres unmarked) [Compound I-38], in assay [5], the dissociation constant (Kd) was 500 to 2500 nM. Moreover, the GI50 in assay [6] and in assay [7] was more than 10000 nM throughout. The DC50 in assay [8] is more than 2500 nM.
As for `C=C(COc1cc(Cl)cc(NC(=O)NCc2ccc3c(c2)CN(C2CCC(=O)NC2=O)C3=O)c1)C(=O)N1CCC[C@@H](n2nc(-c3ccc(Oc4ccccc4)cc3)c3c(N)ncnc32)C1` (some centres unmarked) [Compound I-114], the Kd in assay [5] is less than 50 nM. The 50% growth inhibitory concentration (GI50) lay within 1500 to 10000 nM in assay [6] and 500 to 1500 nM in assay [7]. Also, the DC50 in assay [8] lay within 500 to 2500 nM.
`C=C(CN(Cc1ccc2c(c1)CN(C1CCC(=O)NC1=O)C2=O)C(=O)Nc1ccc(C)c(Cl)c1)C(=O)N1CCC[C@@H](n2nc(-c3ccc(Oc4ccccc4)cc3)c3c(N)ncnc32)C1` (some centres unmarked) [Compound I-31]: the Kd in assay [5] lay in the range of 500 to 2500 nM. Besides, the GI50 in assay [6] and in assay [7] was more than 10000 nM throughout. The molecule further returned a DC50 in assay [8] of more than 2500 nM.
In turn, `C=C(CN1C(=O)CCC(N2Cc3cc(CNC(=O)Nc4ccc(C)c(Cl)c4)ccc3C2=O)C1=O)C(=O)N1CCC[C@@H](n2nc(-c3ccc(Oc4ccccc4)cc3)c3c(N)ncnc32)C1` (stereo partly drawn) [Compound I-3, 1-[[2-[1-[2-[(3R)-3-[4-amino-3-(4-phenoxyphenyl)pyrazolo[3,4-d]pyrimidin-1-yl]piperidine-1-carbonyl]allyl]-2,6-dioxo-3-piperidyl]-1-oxo-isoindolin-5-yl]methyl]-3-(3-chloro-4-methyl-phenyl)urea] came in with a Kd in assay [5] of 500 to 2500 nM. Further, the DC50 in assay [8] was more than 2500 nM.
